Data published in US20040209239A1, “Methods and compositions fir identifying episomal dna virus infection treatment” (priority 2001, published 2004).

Key:
[1] = system: OriP; assay: OriP plasmid maintenance in cells; assay type: cell-based, Epstein-Barr virus; conditions: for OriP maintenance, dependence on nonamer binding sites: D98/HR1 cells transfected with OriP wt or OriPΔa,b,c, 3 weeks after sorting, Southern analysis of Hirt lysates; for plasmid maintenance of OriP: FIG. 4 and FIG. 5C
Source text: A green fluorescent protein (GFP) reporter gene is inserted into the polylinker site of plasmid pREP10 (Invitrogen), which contains the EBV oriP and EBNA-1 under the control of its weak, naturally-occurring viral promoter. The GFP reporter gene allows for rapid flow cytometric (FACS) analysis to determine the percent of cells carrying the DNA vector. FACS is also used to cell sort, i.e., to obtain a homogeneous population of cells all expressing GFP and therefore carrying the vector.
The recombinant episomal plasmid GFP-REP10 is transfected into recipient mammalian or avian host cells and cells are sorted after 48 hours to obtain a homogeneous population (100%) expressing the GFP label. Test compounds, individually or in combination, or controls are applied to samples of the culture medium to test for the effect on GFP positive cells. Cells treated with test compounds, or with positive and/or negative controls, are assayed for the rate of loss of GFP over several days to weeks. These rates of loss are compared for each test compound with the relevant controls to determine novel test compounds that enhance or decrease episomal maintenance in the cell.
Confirmation of episomal DNA is determined at the experimental endpoint of between 3 to 5 weeks, using the HIRT extraction and Southern blotting procedure, described in e.g., Yates et al, 2000, J. Virol. 74, 4512-4522.
In one study, D98/HR1 cells were transfected with OriP wt or OriPΔa,b,c, GFP-selected by FACS, and cultured in the presence of niacinamide (PARP inhibitor), hydroxyurea (PARP stimulator), or 3-AB (PARP inhibitor). OriP maintenance was assayed 3 weeks after sorting by Southern analysis of Hirt lysates.

[2] = system: MCM3; assay: MCM3 binding to DS in Akata cells; assay type: cell-based; conditions: preliminary results
Method: (§1) EBNA1 and MCM3 binding to DS were assayed in Akata cells cultured with no treatment, with hydroxyurea, or with niacinamide. […] Future quantification of these preliminary results will be necessary to determine the significance of MCM3 and other MCM complex components interaction with OriP.

[3] = system: episomal plasmids; assay: Transient replication of episomal plasmids; assay type: cell-based
[4] = system: EBV genome; assay: Stability of the EBV genome in cells; assay type: cell-based, Epstein-Barr virus; conditions: FIG. 5A and FIG. 5B
[5] = system: EBNA1; assay: DS DNA affinity chromatography in the presence or absence of NAD; assay type: binding, Epstein-Barr virus; conditions: 1 mM NAD
Method: To identify cellular proteins that mediate EBNA1 functions at OriP, a stable HeLa cell derivative (SL1) was established expressing epitope tagged EBNA1 (HA-EBNA1) and episomal OriP. SL1 cells were generated by retroviral transformation of HeLa S3 cells with HA-EBNA1 lacking Gly-Ala repeats (Δ102-325). HeLa and SL1 cell nuclear extracts were prepared by the method of Dignam, J. D. et al, 1983 Nucl. Acids Res. 11, 1475-1489. Nuclear pellets were solubilized by sonication in RIPA buffer (1% Triton×100, 0.1% sodium deoxycholate, 140 mM NaCl, 50 mM Hepes (pH 7.5), 1 mM EDTA, 1 mM DTT, and protease inhibitors-1 mM PMSF, 1 mM benzamidine, 10 μg/ml aprotinin, 20 μg/ml leupeptine, 1 μg/ml pepstatin, 25 μg/ml TLCK and 50 μg/ml TPCK). Sonicated nuclear pellets were clarified by centrifugation at 39,000×g for 30 minutes. This solubilized nuclear pellets were combined with nuclear extract (1:1) made 6 mM MgCl2, and preincubated with 400 μg/ml sonicated herring sperm DNA for 30 minutes. Biotinylated PCR fragments were coupled to streptavidin conjugated magnetic bead (Dynal) and then incubated nuclear extracts for 45 minutes at 25° C. The bound material was washed 4 times in D150 buffer (20 mM HEPES, pH7.9, 20% glycerol, 0.2 mM EDTA, 150 mM KCl, 1 mM DTT, 1 mM PMSF) and then eluted with D1000 (same as above except 1000 mM KCl). […]

[6] = system: TRF1; assay: ChIP assay of TRF1 association with OriP in D98/HR1 cells; assay type: cell-based; conditions: treated D98/HR1 cells
Method: (§2) To determine if telomere associated proteins EBNA1, TRF2 and Tankyrase associate with EBV oriP episomes in naturally infected cell lines, the chromatin immunoprecipitation) (CHIP) assay was used with EBV positive RAJI Burkitt lymphoma cell lines that contain ˜5-25 copies of episomal EBV. Chromatin immunoprecipitation was performed as described in Galande, S. & Kohwi-Shigematsu, 1999 J. Biol. Chem. 274, 20521-20528.
(§3) Briefly, asynchronous RAJI cells were cross-linked with formaldehyde, sonicated to generate chromatin DNA fragments of 400 bp average size, and then immunoprecipitation with various antibodies to FLAG-M2 (Sigma), EBNA1, Tankyrase, or TRF2. DNA fragments isolated from immunoprecipitation protein-DNA complexes (three-fold dilutions for each set of antibodies) were then amplified for 24 cycles by PCR with primer pairs specific for the DS region of EBV oriP (corresponding to EBV nucleotides 8586-9206, nucleotides 1-621 SEQ ID NO: 1), or for control EBV sequences surrounding the BRLF1 promoters (nucleotides 106,094-106,420, nucleotides 1-317 SEQ ID NO: 2), over 90 kb away from oriP and unlikely to share OriP binding proteins.
(§4) EBNA1, hRap1,and TRF1 association with OriP were determined by ChIP assay in cells that were treated with hydroxyurea or niacinamide. […]

[7] = system: histone H3; assay: OriP-associated histone modification by ChIP assay in Akata cells; assay type: cell-based
Method: Akata cells were cultured without treatment, with H2O2, hydroxyurea (HU) or niacinamide as indicated above each lane. OriP-associated histone modification was measured by ChIP assay with antibodies specific for Flag, Acetylated H3, acetylated H4, or S10 phosphorylated H3.

[8] = system: EBNA1; assay: ChIP assay of EBNA1 association with OriP in D98/HR1 cells; assay type: cell-based, Epstein-Barr virus; conditions: treated D98/HR1 cells
Method: as §2, §3, §4

[9] = system: EBNA1; assay: EBNA1 binding to DS in Akata cells; assay type: cell-based, Epstein-Barr virus; conditions: preliminary results
Method: as §1

[10] = system: hRap1; assay: ChIP assay of hRap1 association with OriP in D98/HR1 cells; assay type: cell-based, human; conditions: treated D98/HR1 cells

| SMILES | long term maintenance of episomal plasmids [1] | OriP maintenance, dependence on nonamer binding sites [1] | plasmid maintenance of OriP [1] | MCM3 binding to DS [2] | transient replication of episomal plasmids [3] | stability of the EBV genome in cells [4] | TRF1 association with OriP [6] | OriP-associated S10 phosphorylation of histone H3 [7] | further results |
| --- | --- | --- | --- | --- | --- | --- | --- | --- | --- |
| NC(=O)c1cccnc1 [niacinamide] | stabilize long term maintenance | enhanced plasmid maintenance was dependent upon the nonamer binding sites in OriP | increased OriP maintenance | increased the MCM3 binding relative to EBNA1 | weakly inhibit transient replication | enhanced stability of the EBV genome | – | – | – |
| NC(=O)c1ccc[n+]([C@@H]2O[C@H](COP(=O)([O-])OP(=O)(O)OC[C@H]3O[C@@H](n4cnc5c(N)ncnc54)[C@H](O)[C@@H]3O)[C@@H](O)[C@H]2O)c1 [NAD] | – | – | – | – | – | – | – | – | association of EBNA1 with DS [5]: strong inhibit the association of EBNA1 |
| OO [H2O2, hydrogen peroxide] | – | – | – | – | – | – | TRF1 binding was reduced | inhibited H3 acetylation and S10 phosphorylation | OriP-associated histone H3 acetylation [7]: inhibited H3 acetylation |
| NC(=O)NO [hydroxyurea] | – | – | decreased the maintenance of the OriP plasmid | decrease in EBNA1 and MCM3 association | – | decreased the stability of the EBV genome | reduced TRF1 association | inhibited S10 phosphorylation of histone H3 | EBNA1 association with OriP [8]: not EBNA1; EBNA1 binding to DS [9]: decrease in EBNA1 and MCM3 association; hRap1 association with OriP [10]: not EBNA1 or hRap1 |
| NC(=O)c1cccc(N)c1 [3-AB, 3-aminobenzamide] | stabilize long term maintenance | enhanced plasmid maintenance was dependent upon the nonamer binding sites in OriP | – | – | weakly inhibit transient replication | enhanced the stability of the EBV genome | – | – | – |
